Measurements taken from US7250399B2, “Compounds having growth hormone releasing activity” (The Administrators of the Tulane Educational Fund, priority 1998, dated 2007).
Values joined by “and” are separate entries in the source; they are usually repeats but may differ in a detail not shown here. Identical values can stand only once.

Columns and labels:
Growth Hormone release [1] = experiment: In Vitro Release of Growth Hormone in Rat; type: cell-based
Method: (§1) In vitro and in vivo activity of certain compounds were determined in rats and adult beagle dogs (in vivo activity only).

Growth Hormone release [2] = experiment: In Vivo Release of Growth Hormone in Adult Beagle Dogs; design: unit not given here
Method: as §1

Growth Hormone release [3] = experiment: In Vivo GH Release in Rats (i.v., serum GH by RIA); design: species or system Sprague-Dawley rats; conditions: i.v., serum 10 min after injection
Method: Immature female Sprague-Dawley rats were obtained from the Charles River Laboratories (Wilmington, Mass.). After arrival they were housed at 25° C. with a 14:10 hour light:dark cycle. Water and Purina rat chow were available ad libitum. Pups were kept with their mothers until 21 days of age.
Twenty-six day old rats, six rats per treatment group, were anesthetized interperitoneally with 50 mg/kg of pentobarbital 20 minutes prior to i.v. treatment with peptide. Normal saline with 0.1% gelatin was the vehicle for intravenous (i.v.) injections of the peptides. The anesthetized rats, weighing 55-65 grams, were injected i.v. with the quantity of grown hormone releasing compounds indicated in Table 3. Injection was made as a 0.1 mL solution into the jugular vein.
All animals were sacrificed by guillotine 10 minutes after final test injection (see Table 3). Trunk blood for the determination of blood GH levels was collected following decapitation. After allowing the blood to clot, it was centrifuged and the serum was separated from the clot. Serum was kept frozen until the day of sampling for radioimmunoassay (RIA) determination of growth hormone levels according to the following procedure, as developed by the National Institute of Arthritis, Diabetes and Digestive and Kidney Diseases (NIADDK).
Reagents are generally added to the RIA analysis tubes at a single sitting, at refrigerator temperature (about 4° C.) in the following sequence: • (a) buffer, • (b) “cold” (i.e., non-radioactive) standard or unknown serum sample to be analyzed, • (c) radio-iodinated growth hormone antigen, and • (d) growth hormone antiserum.
Reagent addition is generally carried out so that there is achieved a final RIA tube dilution of about 1:30,000 (antiserum to total liquid volume; vol:vol).
The mixed reagents are then typically incubated at room temperature (about 25° C.) for about 24 hours prior to addition of a second antibody (e.g., goat or rabbit anti-monkey gamma globulin serum) which binds to and causes precipitation of the complexed growth hormone antiserum. Precipitated contents of the RIA tubes are then analyzed for the number of counts in a specified period of time in a gamma scintillation counter. A standard curve is prepared by plotting number of radioactive counts versus growth hormone (GH) level. GH levels of unknown are then determined by reference to the standard curve.
Serum GH was measured by RIA with reagents provided by the National Hormone and Pituitary Program.
Serum levels in Tables 3 and 4 are recorded in ng/mL in terms of the rat GH standard of 0.61 International Units/mg (IU/mg). Data is recorded as the mean ±standard error of the mean (SEM). Statistical analysis was performed with Student's t-test. In Table 3, the results shown are the average of studies with six rats.

[4] = compound at .0001 (dose unit not given)
[5] = compound at .0003 (dose unit not given)
[6] = compound at .001 (dose unit not given)
[7] = compound at .003 (dose unit not given)
[8] = compound at .01 (dose unit not given)
[9] = oral dose 1 mg/kg, time 0.5 hr, 1 mg/kg
[10] = oral dose 1 mg/kg, time 1 hr, 1 mg/kg
[11] = oral dose 1 mg/kg, time 2 hr, 1 mg/kg
[12] = oral dose 1 mg/kg, time 3 hr, 1 mg/kg
[13] = compound at 3 (dose unit not given)
[14] = compound at 10 (dose unit not given)
[15] = compound at 30 (dose unit not given)
[16] = compound at 100 (dose unit not given)
[17] = compound at 1 (dose unit not given)
[18] = compound at .03 (dose unit not given)
[19] = compound at .1 (dose unit not given)
[20] = compound at .3 (dose unit not given)

Substance	In Vitro Release of Growth Hormone in Rat, GH (Growth Hormone release [1]; [4]) [ng/mL]	In Vitro Release of Growth Hormone in Rat, GH (Growth Hormone release [1]; [5]) [ng/mL]	In Vitro Release of Growth Hormone in Rat, GH (Growth Hormone release [1]; [6]) [ng/mL]	In Vitro Release of Growth Hormone in Rat, GH (Growth Hormone release [1]; [7]) [ng/mL]	In Vitro Release of Growth Hormone in Rat, GH (Growth Hormone release [1]; [8]) [ng/mL]	In Vivo Release of Growth Hormone in Adult Beagle Dogs (Growth Hormone release [2]; [9])	In Vivo Release of Growth Hormone in Adult Beagle Dogs (Growth Hormone release [2]; [10])	In Vivo Release of Growth Hormone in Adult Beagle Dogs (Growth Hormone release [2]; [11])	In Vivo Release of Growth Hormone in Adult Beagle Dogs (Growth Hormone release [2]; [12])	In Vivo Release of Growth Hormone in Adult Beagle Dogs (Growth Hormone release [2]; oral dose 2 mg/kg, time 0.5 hr)	In Vivo Release of Growth Hormone in Adult Beagle Dogs (Growth Hormone release [2]; oral dose 2 mg/kg, time 1 hr)	In Vivo Release of Growth Hormone in Adult Beagle Dogs (Growth Hormone release [2]; oral dose 2 mg/kg, time 2 hr)	In Vivo Release of Growth Hormone in Adult Beagle Dogs (Growth Hormone release [2]; oral dose 2 mg/kg, time 3 hr)	In Vivo Release of Growth Hormone in Adult Beagle Dogs (Growth Hormone release [2]; oral dose 2 mg/kg, time 4 hr)	In Vivo Release of Growth Hormone in Adult Beagle Dogs (Growth Hormone release [2]; oral dose 2 mg/kg, time 6 hr)	In Vivo Release of Growth Hormone in Adult Beagle Dogs (Growth Hormone release [2]; oral dose 2 mg/kg, time 7 hr)	In Vivo Release of Growth Hormone in Rat, GH (Growth Hormone release [3]; [13]) [ng/mL]	In Vivo Release of Growth Hormone in Rat, GH (Growth Hormone release [3]; [14]) [ng/mL]	In Vivo Release of Growth Hormone in Rat, GH (Growth Hormone release [3]; [15]) [ng/mL]	In Vivo Release of Growth Hormone in Rat, GH (Growth Hormone release [3]; [16]) [ng/mL]	also measured
Aib-DTrp-DPro-3-methylpiperidinamide [DPro-m-methylpiperidine]	434	458	633	837	968	53 and 63	19 and 32	15 and 17	9.6 and 13	128	59	29	12	8.9	3	3	832	1557	1570	1762	In Vivo Release of Growth Hormone in Adult Beagle Dogs (Growth Hormone release [2]; oral dose 1 mg/kg, time 0 hr, 1 mg/kg): 2; In Vivo Release of Growth Hormone in Adult Beagle Dogs (Growth Hormone release [2]; oral dose 1 mg/kg, time 5 hr, 1 mg/kg): 2.2 and 1.5; In Vivo Release of Growth Hormone in Adult Beagle Dogs (Growth Hormone release [2]; oral dose 1 mg/kg, time 7 hr, 1 mg/kg): 2.2 and 3; In Vivo Release of Growth Hormone in Adult Beagle Dogs (Growth Hormone release [2]; oral dose 1 mg/kg, time 8 hr, 1 mg/kg): 1; In Vivo Release of Growth Hormone in Adult Beagle Dogs (Growth Hormone release [2]; oral dose 4 mg/kg, time 1 hr): 55; In Vivo Release of Growth Hormone in Adult Beagle Dogs (Growth Hormone release [2]; oral dose 4 mg/kg, time 2 hr, 4 mg/kg): 50 and 54; In Vivo Release of Growth Hormone in Adult Beagle Dogs (Growth Hormone release [2]; oral dose 4 mg/kg, time 3 hr, 4 mg/kg): 52 and 53; In Vivo Release of Growth Hormone in Adult Beagle Dogs (Growth Hormone release [2]; oral dose 4 mg/kg, time 4 hr, 4 mg/kg): 20 and 34; In Vivo Release of Growth Hormone in Adult Beagle Dogs (Growth Hormone release [2]; oral dose 4 mg/kg, time 6 hr, 4 mg/kg): 11; In Vivo Release of Growth Hormone in Adult Beagle Dogs (Growth Hormone release [2]; oral dose 4 mg/kg, time 7 hr, 4 mg/kg): 11; In Vivo Release of Growth Hormone in Adult Beagle Dogs (Growth Hormone release [2]; oral dose 4F [sic] (mg/kg; F not explained), time 0 hr): 1.4; In Vivo Release of Growth Hormone in Adult Beagle Dogs (Growth Hormone release [2]; oral dose 4F [sic] (mg/kg; F not explained), time 0.5 hr): 72; In Vivo Release of Growth Hormone in Adult Beagle Dogs (Growth Hormone release [2]; oral dose 4F [sic] (mg/kg; F not explained), time 1 hr): 84; In Vivo Release of Growth Hormone in Adult Beagle Dogs (Growth Hormone release [2]; oral dose 4F [sic] (mg/kg; F not explained), time 2 hr): 18; In Vivo Release of Growth Hormone in Adult Beagle Dogs (Growth Hormone release [2]; oral dose 4F [sic] (mg/kg; F not explained), time 3 hr): 4.7; In Vivo Release of Growth Hormone in Adult Beagle Dogs (Growth Hormone release [2]; oral dose 4F [sic] (mg/kg; F not explained), time 4 hr): 3.5; In Vivo Release of Growth Hormone in Adult Beagle Dogs (Growth Hormone release [2]; oral dose 4F [sic] (mg/kg; F not explained), time 5 hr): 1.4
Aib-DTrp-DPro-diisobutylamide					1322					54	30	22	15	7	4.8		1524	1837	2307	2913	In Vitro Release of Growth Hormone in Rat, GH (Growth Hormone release [1]; [17]): 1124 ng/mL; In Vitro Release of Growth Hormone in Rat, GH (Growth Hormone release [1]; [18]): 1529 ng/mL; In Vitro Release of Growth Hormone in Rat, GH (Growth Hormone release [1]; [19]): 1427 ng/mL; In Vitro Release of Growth Hormone in Rat, GH (Growth Hormone release [1]; [20]): 1155 ng/mL; In Vivo Release of Growth Hormone in Adult Beagle Dogs (Growth Hormone release [2]; oral dose 1 mg/kg, time 0.5 hr, listed as DPo-diisobutylamide, 1 mg/kg): 85 and 128 and 89; In Vivo Release of Growth Hormone in Adult Beagle Dogs (Growth Hormone release [2]; oral dose 1 mg/kg, time 1 hr, listed as DPo-diisobutylamide, 1 mg/kg): 30 and 50 and 59; In Vivo Release of Growth Hormone in Adult Beagle Dogs (Growth Hormone release [2]; oral dose 1 mg/kg, time 2 hr, listed as DPo-diisobutylamide, 1 mg/kg): 16 and 24 and 30; In Vivo Release of Growth Hormone in Adult Beagle Dogs (Growth Hormone release [2]; oral dose 1 mg/kg, time 4 hr, listed as DPo-diisobutylamide, 1 mg/kg): 6 and 5.6 and 7; In Vivo Release of Growth Hormone in Adult Beagle Dogs (Growth Hormone release [2]; oral dose 1 mg/kg, time 7 hr, listed as DPo-diisobutylamide, 1 mg/kg): 2.5 and 2.2 and 3.7; In Vivo Release of Growth Hormone in Adult Beagle Dogs (Growth Hormone release [2]; oral dose 2 mg/kg, time 5 hr): 4.6; In Vivo Release of Growth Hormone in Adult Beagle Dogs (Growth Hormone release [2]; oral dose 2 mg/kg, time 8 hr): 1.8; In Vivo Release of Growth Hormone in Adult Beagle Dogs (Growth Hormone release [2]; oral dose 4 mg/kg, time 0 hr, listed as DPo-diisobutylamide, 4 mg/kg): 1.4 and 0.8; In Vivo Release of Growth Hormone in Adult Beagle Dogs (Growth Hormone release [2]; oral dose 4 mg/kg, time 3 hr, listed as DPo-diisobutylamide, 4 mg/kg): 15 and 22; In Vivo Release of Growth Hormone in Adult Beagle Dogs (Growth Hormone release [2]; oral dose 4 mg/kg, time 7 hr, listed as DPo-diisobutylamide, 4 mg/kg): 6.9; In Vivo Release of Growth Hormone in Rat, GH (Growth Hormone release [3]; [17]): 642 ng/mL
N-2-hydroxylethyl-Aib-DTrp-DPro-diisobutylamide [R^1 = -N-2-OHethyl/DPro-diisobutylamide]			452	326	526	102 and 62	26 and 30	25 and 19	10								156	259	451		In Vitro Release of Growth Hormone in Rat, GH (Growth Hormone release [1]; [18]): 820 ng/mL; In Vitro Release of Growth Hormone in Rat, GH (Growth Hormone release [1]; [19]): 1163 ng/mL; In Vitro Release of Growth Hormone in Rat, GH (Growth Hormone release [1]; [20]): 1217 ng/mL; In Vivo Release of Growth Hormone in Adult Beagle Dogs (Growth Hormone release [2]; oral dose 1 mg/kg, time 4 hr, 1 mg/kg): 6.1 and 3.8; In Vivo Release of Growth Hormone in Adult Beagle Dogs (Growth Hormone release [2]; oral dose 1 mg/kg, time 6 hr, 1 mg/kg): 4.0 and 2.5
Aib-DTrp-DTrp-Phe-Arg-5-aminopentylamide [DTrpPhe-Arg-5-amino pentamide]	1228	1416	1712	1648	1621					83	20	6.8	3.9	2.9	3.1	3.3	2929				In Vivo Release of Growth Hormone in Adult Beagle Dogs (Growth Hormone release [2]; oral dose 1 mg/kg, time 0 hr): 2.5; In Vivo Release of Growth Hormone in Adult Beagle Dogs (Growth Hormone release [2]; oral dose 1 mg/kg, time 0.5 hr): 38; In Vivo Release of Growth Hormone in Adult Beagle Dogs (Growth Hormone release [2]; oral dose 1 mg/kg, time 1 hr): 8.5; In Vivo Release of Growth Hormone in Adult Beagle Dogs (Growth Hormone release [2]; oral dose 1 mg/kg, time 2 hr): 2.8; In Vivo Release of Growth Hormone in Adult Beagle Dogs (Growth Hormone release [2]; oral dose 1 mg/kg, time 3 hr): 2.3; In Vivo Release of Growth Hormone in Adult Beagle Dogs (Growth Hormone release [2]; oral dose 1 mg/kg, time 4 hr): 1.4; In Vivo Release of Growth Hormone in Adult Beagle Dogs (Growth Hormone release [2]; oral dose 1 mg/kg, time 5 hr): 1.7; In Vivo Release of Growth Hormone in Adult Beagle Dogs (Growth Hormone release [2]; oral dose 1 mg/kg, time 6 hr): 2.1; In Vivo Release of Growth Hormone in Adult Beagle Dogs (Growth Hormone release [2]; oral dose 1 mg/kg, time 7 hr): 2; In Vivo Release of Growth Hormone in Adult Beagle Dogs (Growth Hormone release [2]; oral dose 1 mg/kg, time 8 hr): 0.8; In Vivo Release of Growth Hormone in Adult Beagle Dogs (Growth Hormone release [2]; oral dose 2 mg/kg, time 0 hr): 3.1; In Vivo Release of Growth Hormone in Adult Beagle Dogs (Growth Hormone release [2]; oral dose 2 mg/kg, time 5 hr): 3.3; In Vivo Release of Growth Hormone in Adult Beagle Dogs (Growth Hormone release [2]; oral dose 2 mg/kg, time 8 hr): 3; In Vivo Release of Growth Hormone in Rat, GH (Growth Hormone release [3]; [17]): 2272 ng/mL; In Vivo Release of Growth Hormone in Rat, GH (Growth Hormone release [3]; [19]): 262 ng/mL; In Vivo Release of Growth Hormone in Rat, GH (Growth Hormone release [3]; [20]): 274 ng/mL
